± gives the expanded uncertainty stated by the source.
Conditions: Crystal; visual observation

- Normal melting temperature: 197.50 ± 0.53 °C
SMILES: O=C1C=CC(=O)N1c1cc(F)c(Br)c(F)c1 [1-(4-bromo-3,5-difluorophenyl)-1H-pyrrole-2,5-dione]
